From ChEMBL document CHEMBL3507680, “University of Dundee, Gates Library screen for HepG2 cell viability” come the findings set out here.

The series can be described thus: Human HepG2 cell viability assay in 384 well format. The series is classed as toxicity, cell-based. Particulars: HepG2 cells, read-out: Inhibition. The arrangement: dose 125 nL, time 70.5 hour; concentration not given beside the values.
On to `CCN(Cc1ccc2c(c1)OCO2)C(=O)Cn1cccnc1=O`, for which the cytotoxicity at 70.5 h was -0.305%. The figure for `c1cc(-c2nnc([C@H]3CCN(C4CCCCC4)C3)o2)ccn1` is -0.595%.

On to `CC(C)C(C(=O)NC1CCOCC1)n1cnc2cc(F)c(F)cc21` (stereo not drawn), for which the cytotoxicity at 70.5 h amounted to 1.78%. `CC(=O)N(C)c1nc(CN2CCOC(Cn3cccn3)C2)cs1` (stereo not drawn): the cytotoxicity at 70.5 h was -11.7%. The figure for `Cn1c(N2CCOCC2)nc2cc(C(=O)N3CCCOCC3)ccc21` is -12.1%; for `CC(C)c1cccc(S(=O)(=O)NCCCN2CCC(O)CC2)c1` it is 3.11%. The figure for `CCn1cnnc1Cc1nc2c([nH]1)CC(c1ccc(Cl)cc1)CNC2=O` (stereo not drawn) is 6.53%. To `CC(C)NC(=O)N1CCCC2(CCN(c3ccccc3)C2=O)C1` (stereo not drawn) belongs -7.73%; to `CCc1ccccc1OCCN1C[C@@H](NS(C)(=O)=O)[C@H](C(C)C)C1`, -5.69%; to `CC1CCCCN1C(=O)COc1nc(Cc2ccc(F)cc2)no1` (stereo not drawn), -6.78%. For `CC(NC(=O)Cc1ccccc1F)(C(N)=O)c1cccc(Cl)c1` (stereo not drawn), the cytotoxicity at 70.5 h was -6.76%. The figure for `CC(OCC(F)(F)F)C(=O)N1CCOCC1` (stereo not drawn) is -99.6%; for `CCN(CC)CCn1cnc(-c2ccccc2)c1-c1cnn(CC)c1` it is -10.7%. To `Cc1nnc(NCc2ccccc2Cl)c(C#N)c1C` belongs -9.79%; to `CC(C)(C)c1cnc(CN2CCN(c3ncccn3)CC2)o1`, 6.21%. To `CCOc1ccccc1CNC(=O)N(CC)C(C)c1cccnc1` (stereo not drawn) belongs -6.76%; to `C[C@@H]1CN(C2(C(=O)N(C)C)Cc3ccccc3C2)C[C@H](C)O1`, 13.4%.

`O[C@@H]1CN(c2cnc3ccccc3n2)CC[C@H]1c1ccc2c(c1)OCO2`: the cytotoxicity at 70.5 h came out at 21%. Take `c1cnc(OCc2nnc3n2CCN(Cc2ccco2)C3)nc1`: the cytotoxicity at 70.5 h is -0.839%. Consider `COc1nc2c(cc1C(=O)N1CC[C@H](CO)[C@@H](O)C1)CCC2`, for which the cytotoxicity at 70.5 h is -16.1%. To `C[C@]1(O)CN(CCC(N)=O)CC[C@@H]1Oc1cccc(F)c1` belongs -0.798%; to `CCn1c(C2CCN(Cc3cc(C)n(NC(C)=O)c3C)CC2)n[nH]c1=O`, -4.98%. Turning to `O=C(NC1CCC1)c1c2c(N3CCCC3)ncnc2n2ccccc12`, the cytotoxicity at 70.5 h was -2.42%. Consider `c1ccc(CO[C@H]2CO[C@@]3(CCCN(Cc4cccnc4)C3)C2)nc1`, for which the cytotoxicity at 70.5 h was -24.8%. The figure for `CCS(=O)(=O)N1CCc2cc(C(=O)NC)c(N(C)C)nc2CC1` is 5.95%; for `C=Cn1ncc(CN2C[C@@H]3CCCN3C[C@H]2CCSC)c1C` it is -12.3%; for `Cc1cnc(-c2nc(C3CCN(Cc4ccccc4Cl)CC3)no2)cn1` it is -3.18%. Consider `Cc1nn(C)c2nc(N3CCNC(=O)C3Cc3ccccc3)sc12` (stereo not drawn), for which the cytotoxicity at 70.5 h is -2.78%. The figure for `O=S(=O)(NCC1(O)CCOc2ccccc21)c1ccc(Br)s1` (stereo not drawn) is 3.29%; for `Cc1ccccc1[C@@H]1CN(C(=O)c2ccc3[nH]nnc3c2)C[C@H]1C(=O)O` it is -4.82%. The figure for `CC(C)Cn1ccnc1CNC(=O)N1CCCC1CN1CCOCC1` (stereo not drawn) is -4.49%. To `CSc1nc2cc(C)n(CC(=O)N3CCCC3)c2c(=O)n1CC(C)C` belongs -5.31%.

`CN(C)CCN1C(=O)CC[C@@H]2[C@H]1CCN2C(=O)c1ccc(C#N)cc1`: the cytotoxicity at 70.5 h was -7.83%. Turning to `CCCc1nc(Nc2cccc(C(N)=O)c2)c2c(n1)c(C)nn2CC`, the cytotoxicity at 70.5 h is -4.15%.

For `CCc1noc(C(C)N(C)CC(=O)Nc2ccccc2Cl)n1` (stereo not drawn), the cytotoxicity at 70.5 h was -89.8%.

Regarding `FC(F)(F)c1n[nH]c2c1CN(CCc1ccccn1)CC2`, the cytotoxicity at 70.5 h amounted to 13.8%. To `Cc1cc(CNS(C)(=O)=O)ccc1N(C)C` belongs -7.39%. For the compound `CN(c1ncccc1C#N)C1CCN(CCc2ccccn2)CC1`, the cytotoxicity at 70.5 h was 13.7%. Turning to `Cc1nc(N)cc(C2CN(C(=O)c3ccn(C)n3)CCO2)n1` (stereo not drawn), the cytotoxicity at 70.5 h is -11.7%. Consider `CC(C)=CCN1C(=O)[C@H]2CC[C@@H]1CN(C(=O)CCc1nc(Cl)n[nH]1)C2`, for which the cytotoxicity at 70.5 h was -14.8%. The figure for `O=C(c1ccnc(-n2ccnc2)c1)N1CCCC(n2ccnc2)C1` (stereo not drawn) is -15%. To `CC(=O)NCCNc1nc(-c2ccccn2)nc2c1c(C)nn2C` belongs 1.86%. In the case of `O=c1c2c(ncn1CCCO)nc1n2CCC1`, the cytotoxicity at 70.5 h is -1.36%.

As for `CN(C)C(=O)N1CCC2(CCCN(CCOc3ccccc3)C2)C1` (stereo not drawn), the cytotoxicity at 70.5 h is -14.6%. To `Cc1cc(CN(C)C(=O)c2ccc(F)cc2Br)no1` belongs -9.11%. As to `CC(=O)N1CCCC(Cc2cncc(Br)c2)CC1` (stereo not drawn), the cytotoxicity at 70.5 h came out at 19.5%. The figure for `Brc1cccc(-c2noc(C3COCCO3)n2)c1` (stereo not drawn) is -9.75%; for `O=C(c1cc(C2CC2)[nH]n1)N1CCN(Cc2ccsc2)CC1` it is 22%; for `COc1ncnc(N)c1CNCc1ccccc1-n1cccn1` it is 6.74%. Consider `CCC1CN(C(=O)c2ccccc2N2CCCC2)CCN1C(C)C` (stereo not drawn), for which the cytotoxicity at 70.5 h is -4.31%.

Regarding `CC(C)c1nc(CC(=O)Nc2cnccc2O)cs1`, the cytotoxicity at 70.5 h was -3.73%. The figure for `CC(C)N1CC(C(=O)NCc2ccnc(-n3cccn3)c2)CC1=O` (stereo not drawn) is -26.8%. The figure for `O=C(CC1CC1)N1CCc2ncc(CN3CCOCC3)n2CC1` is -13.3%; for `Cn1cc(C2CCCN2C(=O)c2cnc(-c3ncccn3)s2)cn1` (stereo not drawn) it is -1.78%. For the compound `COCCn1c(=O)n(Cc2ccccc2C)c2cc(C(=O)O)ccc21`, the cytotoxicity at 70.5 h was -7.93%.

Regarding `Cc1ccc(C(=O)CC(SC2CCCCC2)C(=O)O)cc1` (stereo not drawn), the cytotoxicity at 70.5 h was -2.59%. Regarding `Cc1cc(C)n(CCC(=O)N2CCCC(c3cc(C(N)=O)[nH]n3)C2)n1` (stereo not drawn), the cytotoxicity at 70.5 h was 29.3%. Turning to `CN(C)CCN(Cc1cccc(F)c1)C(=O)c1ccn(C)c(=O)c1`, the cytotoxicity at 70.5 h is -2.08%. On to `COCC(=O)NC(C)Cc1cccc(Cl)c1` (stereo not drawn), for which the cytotoxicity at 70.5 h stood at 5.75%. `O=C(c1csc(-c2ccccn2)n1)N1CCCC1Cn1cccn1` (stereo not drawn): the cytotoxicity at 70.5 h is -2.56%. To `c1ccc(OCc2noc3c2CN(c2ncccn2)CC3)nc1` belongs -6.14%. To `Cc1cc(C)n(CC2CCCN2CC(=O)Nc2cc(C(C)C)no2)n1` (stereo not drawn) belongs 14.2%; to `CCN(Cc1cnn(C)c1)C[C@H]1CC[C@@H](Cc2cccc(C#N)c2)O1`, -5.55%; to `Cc1cnn(CC(=O)N2CCC3(CCC(=O)N(CCCO)C3)CC2)c1`, 0.675%. To `O=C(CNC(=O)C1CC1)NCc1ccc(Cl)s1` belongs 1.44%. On to `Cc1ccc(F)c(CNc2ccn(CCC(N)=O)n2)c1`, for which the cytotoxicity at 70.5 h was determined as 3.53%.

Take `CN(CC(=O)N1CCc2[nH]c3ccc(F)cc3c2C1)CC1OCCO1`: the cytotoxicity at 70.5 h was found to be 3.34%.

`O=S(=O)(C1CC1)N1CC[C@]2(C[C@H](OCC3CCOCC3)CO2)C1`: the cytotoxicity at 70.5 h was -9.21%. For `COCc1nc2c(o1)CN(C(=O)NCc1ccccc1)C2`, the cytotoxicity at 70.5 h is -12.9%. With `CC(C)c1nnc(CCC(=O)N2CCCC(c3cnccn3)C2)o1` (stereo not drawn), the cytotoxicity at 70.5 h was -9.44%. To `CNS(=O)(=O)c1c(C)sc2ccccc12` belongs -0.847%. To `O=C(c1[nH]nc(C2CC2)c1Cl)N1CCN(C2CC2)CC1` belongs 0.431%; to `CCOC(=O)c1cnn(C2CCN(C(=O)CC(C)(C)C)CC2)c1N`, 4.77%; to `Cc1nc(CNC(=O)NCC(F)(F)F)oc1C`, 3.56%. With `Cc1nc(C2CCCN2C(=O)Cc2ccc(F)cc2)nc(O)c1C` (stereo not drawn), the cytotoxicity at 70.5 h was 2.83%.

`O=C(c1ccccn1)N1CCc2c(nc(N3CCCC3)[nH]c2=O)C1`: the cytotoxicity at 70.5 h is -1.38%. The figure for `Cc1cnn(CC2CCCN2C(=O)c2ccc(OC(C)C)nc2)c1` (stereo not drawn) is -15%; for `CS(=O)(=O)NC[C@H]1Cn2c(-c3ccc(F)cc3)cnc2CO1` it is -3.71%. On to `CCN(Cc1noc(CC(C)C)n1)Cc1cc2ccc(F)cc2[nH]c1=O`, for which the cytotoxicity at 70.5 h turned out to be 0.157%. To `Cc1cccc(NC2CCN(C(=O)Nc3cccc4[nH]ccc34)CC2)n1` belongs -8.86%. To `O=C1N(CC2CCCC2)CCC12CCN(c1ncc(F)cn1)CC2` belongs -7.22%; to `CC(C)NC(=O)NCc1ccnc(N(C)C)n1`, -6.75%. To `CN(C)C(=O)c1nn(C)c2c1CN(Cc1cccs1)C2` belongs -9.29%; to `CC(C1CC1)N(C(=O)NCCCn1nc2ccccn2c1=O)C1CC1` (stereo not drawn), 2.18%; to `CC(=O)NCCNC(=O)CCn1c(C)cc2ccccc21`, -3.8%.

Take `COCC(=O)N1CCC2(CC1)CC(COC)N(c1ncccn1)C2` (stereo not drawn): the cytotoxicity at 70.5 h was -5.32%. To `COc1ccc(CNc2cnn(C)c(=O)c2Cl)cc1` belongs 1.82%. To `O=c1[nH]nc2c(N3CCCCCC3)nccn12` belongs -8.09%; to `CC(C(=O)Nc1ccc(N2CCCCC2)nc1)n1ccnc1` (stereo not drawn), 25.5%; to `O=C(NC1CCCCC1)N1C[C@@H]2OCCN(C(=O)c3ccco3)[C@@H]2C1`, 0.645%. To `O=C(N[C@H]1CN(Cc2cccs2)[C@@H]2CCCO[C@H]12)c1cccnc1` belongs -18.4%.

Consider `Cn1cc(NC(=O)N2CCN(Cc3cscn3)CC2)ccc1=O`, for which the cytotoxicity at 70.5 h is -9.04%. The figure for `COCC1CN(C(=O)c2ccoc2C)Cc2nccn2C1` (stereo not drawn) is 22.7%. To `Cc1cnn(CCC(=O)N2CCCN(c3ccccc3C#N)CC2)c1` belongs -1.64%; to `CC[C@@H]1N(C)CCC[C@]12CCC(=O)N2Cc1ccncc1`, 0.423%; to `Cc1n[nH]c(C2CN(C(=O)c3ccn(C)c(=O)c3)CCO2)n1` (stereo not drawn), 31.8%.

Consider `CCCS(=O)(=O)N1C[C@H]2C[C@H](C(=O)N3CCCC3)[C@@H](C1)O2`, for which the cytotoxicity at 70.5 h was -3.05%. The figure for `Cc1cccc(CS(=O)(=O)c2nnc(N3CCOCC3)s2)c1` is 0.983%.
